Experimental data reported in patent publication EP0470490B1, “Substituted pyrroles” (F. HOFFMANN-LA ROCHE AG, priority 1990, dated 1992).
Structures can show the parent of a compound that is named as a salt.

Molecular target: protein kinase C
Experiment: in vitro protein kinase C inhibition: protein kinase-induced incorporation of 32P from [γ-32P]ATP into histone
Type: biochemical
Details: concentration of test compound which reduces by 50% the protein kinase-induced incorporation of 32P from [γ-32P]ATP into histone
Source text: Research Comm. 19 (1979) 1218. The IC50 values in the following Table are that concentration of test compound which reduces by 50% the protein kinase-induced incorporation of ^32P from [γ-^32P]ATP into histone. Table

SMILES	IC50 [nM]
Cn1cc(C2=C(c3c4n(c5ccccc35)CCC3(CCNC3)C4)C(=O)NC2=O)c2ccccc21 (stereo not drawn) [Example 1, 3-[6,7,8,9-tetrahydrospiro[pyrido[1,2-a]indole-8,3'-pyrrolidin-10-yl]-4-(1-methyl-3-indolyl)-pyrrole-2,5-dione trifluoroacetate]	40
CN1C[C@H]2Cc3c(C4=C(c5cn(C)c6ccccc56)C(=O)NC4=O)c4ccccc4n3C[C@@H]2C1 (relative stereo) [Example 14, trans-3-(2,3,3a,4,11,11a-hexahydro-2-methyl-1H-pyrrolo[3',4':4,5]pyrido[1,2-a]indol-10-yl)-4-(1-methyl-3-indolyl)-1H-pyrrole-2,5-dione hydrochloride]	7
CN1C[C@@H]2Cc3c(C4=C(c5cn(C)c6ccccc56)C(=O)NC4=O)c4ccccc4n3C[C@@H]2C1 (relative stereo) [Example 6, cis-3-[2,3,3a,4,11,11a-hexahydro-2-methyl-1H-pyrrolo[3',4':4,5]pyrido-[1,2-a]indol-10-yl]-4-(1-methyl-3-indolyl)-1H-pyrrole-2,5-dione hydrochloride]	30
